Measured values from patent US11292766B2, “Substituted piperidine compound and use thereof” (Takeda Pharmaceutical Company Limited, priority 2016, dated 2022).

Target: human orexin type 2 receptor (hOX2R) (Homo sapiens (Human), UniProt O43614)
Experiment: Measurement of orexin type 2 receptor agonist activity (Experimental Example 2-1, FLIPR intracellular Ca2+)
Assay type: cell-based
Excerpt: To obtain a cell clone stably expressing human orexin type 2 receptor, human orexin type 2 receptor cDNA was inserted into pcDNA3.1(+) plasmid vector (Invitrogen), and a plasmid DNA for expression of human orexin type 2 receptor (pcDNA3.1(+)/hOX2R) was cloned. The plasmid DNA was introduced into CHO-dhfr cell by an electroporation method, and human orexin type 2 receptor expressing clone cells were obtained by limiting dilution method by using G418 drug resistance as a selection marker.
Chinese hamster ovary (CHO) dhfr-cells forcibly expressing human orexin type 2 receptor (hOX2R) were seeded in each well of Black clear bottom plate (384 wells) (Becton, Dickinson and Company) by 10,000 cells, and cultured for 16 hr in an MEM-alpha (Nikken-Bio Co., Ltd.) medium containing 100 U/ml penicillin, 100 μg/ml streptomycin, […] G418 (all above Invitrogen), and 10% fetal calf serum (Thermo), under the conditions of 37° C., 5% CO2. […] A test compound was dissolved in dimethyl sulfoxide to 10 mM, and then diluted with assay buffer 2 (20 mM HEPES, Hanks' balanced salt solution (Invitrogen), 0.1% bovine serum albumin). For the reaction, a test compound solution (10 μL) was added using Fluorescent Imaging Plate Reader TETRA (FLIPR TETRA; manufactured by Molecular Devices), a fluorescence value (excitation wavelength 488 nm, measurement wavelength 570 nm) of each well was measured every one second for 1 min, and the agonist activity was determined using the area of the fluorescence value as an indicator of intracellular Ca^2+ concentration.

[1] = CHO dhfr- cells expressing hOX2R, FLIPR TETRA Ca2+ fluorescence (Exp. Ex. 2-1)

human orexin type 2 receptor (hOX2R), sequence (O43614 whole entry): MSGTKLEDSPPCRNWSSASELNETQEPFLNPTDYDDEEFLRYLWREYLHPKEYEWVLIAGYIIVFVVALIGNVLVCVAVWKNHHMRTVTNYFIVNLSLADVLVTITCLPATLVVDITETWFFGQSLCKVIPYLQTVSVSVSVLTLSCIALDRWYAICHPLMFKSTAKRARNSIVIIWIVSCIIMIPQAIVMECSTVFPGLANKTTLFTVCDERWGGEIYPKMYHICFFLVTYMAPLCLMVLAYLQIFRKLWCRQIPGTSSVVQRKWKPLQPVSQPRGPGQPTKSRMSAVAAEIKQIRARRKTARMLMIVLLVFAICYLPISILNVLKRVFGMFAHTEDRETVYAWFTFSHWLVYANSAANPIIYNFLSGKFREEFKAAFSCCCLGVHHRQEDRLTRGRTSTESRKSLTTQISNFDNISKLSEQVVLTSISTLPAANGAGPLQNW

Emax at 30 µM (value at 30 uM concentration, orexin B as full agonist = 100%)	EC50 [1]	Compound	Emax (%) [1]
98%	–	COc1ccccc1[C@H]1CC[C@@H](OC[C@H]2[C@@H](NS(C)(=O)=O)CCCN2C(=O)C2CC2)CC1 [Example 28, N-((2R,3S)-1-(cyclopropylcarbonyl)-2-(((cis-4-(2-methoxyphenyl)cyclohexyl)oxy)methyl)piperidin-3-yl)methanesulfonamide]	–
–	0.015 µM	CCOC(=O)N1CCC[C@H](NS(C)(=O)=O)[C@@H]1CO[C@H]1CC[C@@H](c2ccccc2)CC1 [Example 303, ethyl (2R,3S)-3-((methylsulfonyl)amino)-2-(((cis-4-phenylcyclohexyl)oxy)methyl)-piperidine-1-carboxylate]	–
–	0.023 µM	COc1cccc([C@H]2CC[C@@H](OC[C@H]3[C@@H](NS(C)(=O)=O)CCCN3C(=O)C3CC3)CC2)c1 [Example 304, N-((2R,3S)-1-(cyclopropylcarbonyl)-2-(((cis-4-(3-methoxyphenyl)cyclohexyl)oxy)-methyl)piperidin-3-yl) methanesulfonamide]	–

Compound	Emax at 30 µM (value at 30 uM concentration, orexin B as full agonist = 100%)	EC50 [1]	Emax (%) [1]
cis-N-ethyl-3- ((methylsulfonyl)amino)-2- (((cis-2-phenyl-1,3-dioxan- 5-yl)oxy)methyl) piperidine-1-carboxamide [Example 140]	–	0.39 µM	92%
